Source: patent publication US20250243171A1, “QUINAZOLINE COMPOUNDS FOR TREATMENT OF DISEASE” (Arthrosi Therapeutics, Inc., priority 2021, published 2025)

Legend:
Assay in all cases: EC50 assay: Ba/F3 stable cell proliferation (CCK-8, 72 h)
Type in all cases: cell-based
Ba/F3 stable cells [1] = target: T1, Ba/F3 stable cells (Homo sapiens, UniProt P00533, DUP767-769, cells depend on it); conditions: Ba/F3-EGFR V769-D770insASV cells
T1 construct: EC50 Ba/F3-EGFR V769-D770insASV; other: Ba/F3-EGFR V769-D770insASV cells, 72 h, CCK-8
T1 sequence (P00533 with tags, fused parts or gaps DUP767-769): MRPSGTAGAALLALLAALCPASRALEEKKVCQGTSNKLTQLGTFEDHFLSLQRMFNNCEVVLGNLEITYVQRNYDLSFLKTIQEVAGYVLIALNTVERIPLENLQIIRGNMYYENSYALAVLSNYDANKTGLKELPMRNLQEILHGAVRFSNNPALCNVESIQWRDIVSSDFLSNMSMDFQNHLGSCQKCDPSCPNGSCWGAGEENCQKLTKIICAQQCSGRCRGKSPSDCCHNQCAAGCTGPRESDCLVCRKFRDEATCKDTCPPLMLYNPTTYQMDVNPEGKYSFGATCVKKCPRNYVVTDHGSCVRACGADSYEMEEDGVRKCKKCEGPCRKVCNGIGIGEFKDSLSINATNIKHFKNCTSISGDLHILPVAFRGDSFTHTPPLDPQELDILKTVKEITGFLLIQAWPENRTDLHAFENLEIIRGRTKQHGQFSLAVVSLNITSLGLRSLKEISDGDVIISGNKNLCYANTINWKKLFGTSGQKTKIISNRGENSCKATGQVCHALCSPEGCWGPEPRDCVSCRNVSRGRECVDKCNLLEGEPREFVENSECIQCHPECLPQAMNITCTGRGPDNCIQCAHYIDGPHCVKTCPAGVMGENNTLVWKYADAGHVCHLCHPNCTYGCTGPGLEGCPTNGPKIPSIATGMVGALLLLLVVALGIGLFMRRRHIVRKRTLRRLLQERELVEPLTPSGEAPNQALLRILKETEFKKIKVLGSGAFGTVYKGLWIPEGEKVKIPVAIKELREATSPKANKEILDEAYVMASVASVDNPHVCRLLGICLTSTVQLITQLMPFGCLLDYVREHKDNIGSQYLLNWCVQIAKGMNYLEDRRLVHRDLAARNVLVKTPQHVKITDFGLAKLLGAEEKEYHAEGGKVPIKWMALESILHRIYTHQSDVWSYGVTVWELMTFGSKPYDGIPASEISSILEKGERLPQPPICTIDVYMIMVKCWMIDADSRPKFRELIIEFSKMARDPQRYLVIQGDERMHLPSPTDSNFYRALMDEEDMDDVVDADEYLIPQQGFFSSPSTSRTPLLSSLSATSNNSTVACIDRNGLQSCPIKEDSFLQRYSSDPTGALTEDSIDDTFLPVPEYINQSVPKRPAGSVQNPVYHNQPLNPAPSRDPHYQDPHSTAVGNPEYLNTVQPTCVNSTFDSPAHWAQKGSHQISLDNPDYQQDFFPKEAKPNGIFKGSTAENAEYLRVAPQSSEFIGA
Procedure, shortened: (§1)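 Ba/F3 stable cells were seeded at 4,000 cells/90 μL/well in 96-well plates and held 2 h at 37° C. in 5% CO2, then given 10 μL of serially titrated compound (0.1% DMSO final). After 72 h at 37° C., CCK-8 reagent was added for 4 hours and absorbance read at 450 nm to derive EC50.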

Ba/F3 stable cells [2] = target: T2, Ba/F3 stable cells (Homo sapiens, UniProt P00533, DUP768-770, cells depend on it); conditions: Ba/F3-EGFR D770-N771insSVD cells
T2 construct: EC50 Ba/F3-EGFR D770-N771insSVD; other: Ba/F3-EGFR D770-N771insSVD cells, 72 h, CCK-8
Procedure, shortened: as §1

Ba/F3 stable cells [3] = target: T3, Ba/F3 stable cells (Homo sapiens, UniProt P04626, DUP772-775, cells depend on it); conditions: Ba/F3-HER2 A775-G776insYVMA cells
T3 construct: EC50 Ba/F3-HER2 A775-G776insYVMA; other: Ba/F3-HER2 A775-G776insYVMA cells, 72 h, CCK-8
T3 sequence (P04626 with tags, fused parts or gaps DUP772-775): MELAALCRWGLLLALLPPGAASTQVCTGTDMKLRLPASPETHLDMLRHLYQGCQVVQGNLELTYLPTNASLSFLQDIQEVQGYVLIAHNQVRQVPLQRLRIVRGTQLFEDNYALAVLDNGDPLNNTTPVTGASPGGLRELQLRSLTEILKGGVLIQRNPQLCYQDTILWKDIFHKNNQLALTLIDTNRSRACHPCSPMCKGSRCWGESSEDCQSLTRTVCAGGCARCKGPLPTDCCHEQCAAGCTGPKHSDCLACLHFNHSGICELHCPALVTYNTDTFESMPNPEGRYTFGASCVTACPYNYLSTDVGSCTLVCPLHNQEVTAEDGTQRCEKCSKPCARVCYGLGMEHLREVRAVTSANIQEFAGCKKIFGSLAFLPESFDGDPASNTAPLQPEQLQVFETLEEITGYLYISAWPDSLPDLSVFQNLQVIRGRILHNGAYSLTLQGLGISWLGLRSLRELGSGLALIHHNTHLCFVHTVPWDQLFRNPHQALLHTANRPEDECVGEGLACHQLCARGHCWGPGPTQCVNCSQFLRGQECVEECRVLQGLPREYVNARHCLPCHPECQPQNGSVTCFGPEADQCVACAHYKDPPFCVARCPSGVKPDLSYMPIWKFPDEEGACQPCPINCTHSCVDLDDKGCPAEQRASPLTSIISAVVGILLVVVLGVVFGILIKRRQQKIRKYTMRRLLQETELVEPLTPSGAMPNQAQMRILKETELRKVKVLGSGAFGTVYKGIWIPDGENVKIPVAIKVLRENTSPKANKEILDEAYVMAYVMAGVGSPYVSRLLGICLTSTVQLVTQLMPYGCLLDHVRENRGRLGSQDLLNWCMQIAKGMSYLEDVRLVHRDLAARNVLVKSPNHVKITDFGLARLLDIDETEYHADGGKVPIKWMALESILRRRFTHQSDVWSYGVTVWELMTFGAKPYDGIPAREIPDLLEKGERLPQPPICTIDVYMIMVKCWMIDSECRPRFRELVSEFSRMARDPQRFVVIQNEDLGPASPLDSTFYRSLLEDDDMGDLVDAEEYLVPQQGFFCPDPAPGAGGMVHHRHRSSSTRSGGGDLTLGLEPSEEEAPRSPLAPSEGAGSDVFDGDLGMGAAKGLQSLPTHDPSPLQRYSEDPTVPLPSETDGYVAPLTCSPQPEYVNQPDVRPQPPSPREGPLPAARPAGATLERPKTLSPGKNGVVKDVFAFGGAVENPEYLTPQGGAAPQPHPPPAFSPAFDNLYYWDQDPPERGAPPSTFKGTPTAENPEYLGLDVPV
Procedure, shortened: as §1

Ba/F3 stable cells [4] = target: T4, Ba/F3 stable cells (Homo sapiens, UniProt P00533, T790M/L858R, cells depend on it); conditions: Ba/F3-EGFR L858R-T790M cells
T4 construct: EC50 Ba/F3-EGFR L858R-T790M; other: Ba/F3-EGFR L858R-T790M cells, 72 h, CCK-8
T4 sequence (P00533 whole entry T790M/L858R): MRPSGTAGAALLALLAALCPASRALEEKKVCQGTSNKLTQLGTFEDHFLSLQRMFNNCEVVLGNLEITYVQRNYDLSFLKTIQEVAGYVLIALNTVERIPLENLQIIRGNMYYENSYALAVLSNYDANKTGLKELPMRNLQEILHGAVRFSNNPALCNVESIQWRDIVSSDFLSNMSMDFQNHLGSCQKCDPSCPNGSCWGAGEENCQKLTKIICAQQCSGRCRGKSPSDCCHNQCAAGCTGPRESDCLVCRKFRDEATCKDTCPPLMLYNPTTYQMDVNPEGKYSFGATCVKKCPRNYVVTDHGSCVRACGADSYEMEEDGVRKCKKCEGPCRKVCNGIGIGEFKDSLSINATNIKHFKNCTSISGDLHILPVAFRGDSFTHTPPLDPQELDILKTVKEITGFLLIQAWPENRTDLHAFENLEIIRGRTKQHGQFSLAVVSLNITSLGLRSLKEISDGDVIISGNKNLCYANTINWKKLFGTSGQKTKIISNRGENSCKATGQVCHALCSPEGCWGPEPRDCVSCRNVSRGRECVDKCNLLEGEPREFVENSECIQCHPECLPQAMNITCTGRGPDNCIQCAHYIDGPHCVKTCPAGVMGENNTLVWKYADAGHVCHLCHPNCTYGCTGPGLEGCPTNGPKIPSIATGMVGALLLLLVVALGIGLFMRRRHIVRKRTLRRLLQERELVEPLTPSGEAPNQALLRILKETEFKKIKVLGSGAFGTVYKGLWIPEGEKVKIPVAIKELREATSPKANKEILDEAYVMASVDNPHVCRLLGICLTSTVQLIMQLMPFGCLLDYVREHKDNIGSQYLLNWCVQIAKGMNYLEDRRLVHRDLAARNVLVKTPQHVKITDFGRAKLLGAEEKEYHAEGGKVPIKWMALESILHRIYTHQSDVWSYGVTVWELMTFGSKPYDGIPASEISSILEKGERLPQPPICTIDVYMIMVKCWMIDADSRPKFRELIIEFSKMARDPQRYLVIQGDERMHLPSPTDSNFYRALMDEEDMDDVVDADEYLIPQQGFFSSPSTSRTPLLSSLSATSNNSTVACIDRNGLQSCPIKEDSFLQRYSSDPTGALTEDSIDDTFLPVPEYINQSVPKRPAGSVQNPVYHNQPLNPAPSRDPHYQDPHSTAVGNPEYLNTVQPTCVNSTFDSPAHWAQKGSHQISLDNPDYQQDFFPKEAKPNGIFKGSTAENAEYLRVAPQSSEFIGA
Procedure, shortened: as §1

Ba/F3 stable cells [5] = target: T5, Ba/F3 stable cells (Homo sapiens, UniProt P00533, INS763FQEA, cells depend on it); conditions: Ba/F3-EGFR A763-Y764insFQEA cells
T5 construct: EC50 Ba/F3-EGFR A763-Y764insFQEA; other: Ba/F3-EGFR A763-Y764insFQEA cells, 72 h, CCK-8
T5 sequence (P00533 with tags, fused parts or gaps INS763FQEA): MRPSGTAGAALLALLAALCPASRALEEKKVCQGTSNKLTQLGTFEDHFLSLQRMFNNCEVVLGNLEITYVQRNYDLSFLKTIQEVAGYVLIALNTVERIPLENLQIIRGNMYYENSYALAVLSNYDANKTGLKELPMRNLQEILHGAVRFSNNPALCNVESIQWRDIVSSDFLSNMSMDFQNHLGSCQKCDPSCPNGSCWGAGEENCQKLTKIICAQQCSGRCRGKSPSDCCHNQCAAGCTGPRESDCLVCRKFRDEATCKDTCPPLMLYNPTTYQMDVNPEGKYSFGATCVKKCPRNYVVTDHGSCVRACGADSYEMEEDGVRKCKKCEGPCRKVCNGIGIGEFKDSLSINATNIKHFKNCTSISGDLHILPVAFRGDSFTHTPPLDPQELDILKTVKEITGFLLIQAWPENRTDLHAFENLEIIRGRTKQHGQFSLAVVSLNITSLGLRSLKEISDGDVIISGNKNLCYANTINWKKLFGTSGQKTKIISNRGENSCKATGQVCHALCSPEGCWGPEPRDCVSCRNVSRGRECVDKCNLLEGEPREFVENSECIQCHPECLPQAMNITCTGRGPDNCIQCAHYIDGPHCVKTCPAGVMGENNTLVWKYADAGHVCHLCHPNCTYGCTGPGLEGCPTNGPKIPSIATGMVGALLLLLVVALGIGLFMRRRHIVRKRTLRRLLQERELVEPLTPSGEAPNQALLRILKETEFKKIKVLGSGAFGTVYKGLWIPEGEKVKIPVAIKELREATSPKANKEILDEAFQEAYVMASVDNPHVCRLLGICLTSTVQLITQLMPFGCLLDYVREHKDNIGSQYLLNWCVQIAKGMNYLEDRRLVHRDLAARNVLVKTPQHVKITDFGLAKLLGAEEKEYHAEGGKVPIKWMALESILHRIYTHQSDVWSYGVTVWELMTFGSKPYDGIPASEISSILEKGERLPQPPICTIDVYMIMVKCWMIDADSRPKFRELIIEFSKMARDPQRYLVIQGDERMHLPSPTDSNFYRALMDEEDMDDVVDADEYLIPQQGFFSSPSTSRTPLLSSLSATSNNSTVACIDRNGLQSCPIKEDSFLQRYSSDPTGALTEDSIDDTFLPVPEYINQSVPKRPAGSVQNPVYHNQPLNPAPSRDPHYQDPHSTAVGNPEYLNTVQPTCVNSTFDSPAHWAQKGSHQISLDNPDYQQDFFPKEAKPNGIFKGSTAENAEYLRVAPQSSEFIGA
Procedure, shortened: as §1

Ba/F3 stable cells [6] = target: T6, Ba/F3 stable cells (Homo sapiens, UniProt P00533, DUP771-773, cells depend on it); conditions: Ba/F3-EGFR H773-V774insNPH cells
T6 construct: EC50 Ba/F3-EGFR H773-V774insNPH; other: Ba/F3-EGFR H773-V774insNPH cells, 72 h, CCK-8
Procedure, shortened: as §1

EC50 (Ba/F3 stable cells [1]) [nM] | EC50 (Ba/F3 stable cells [2]) [nM] | EC50 (Ba/F3 stable cells [3]) [nM] | EC50 (Ba/F3 stable cells [4]) [nM] | EC50 (Ba/F3 stable cells [5]) [nM] | EC50 (Ba/F3 stable cells [6]) [nM] | Compound
≤ 200 | 200 to 1000 | ≤ 200 | > 1000 | ≤ 200 | 200 to 1000 | C=CC(=O)N1CCCC(c2ccc3ncnc(Nc4ccc(Cl)c(Cl)c4F)c3c2)C1 (stereo not drawn) [Compound 184, 1-(3-(4-((3,4-dichloro-2-fluorophenyl)amino)quinazolin-6-yl)piperidin-1-yl)prop-2-en-1-one]
≤ 200 | 200 to 1000 | 200 to 1000 | ≤ 200 | ≤ 200 | ≤ 200 | C=CC(=O)N1CCCC(c2cc3c(Nc4ccc(Cl)c(Cl)c4F)ncnc3cc2OC)C1 (stereo not drawn) [Compound 185, 1-(3-(4-((3,4-dichloro-2-fluorophenyl)amino)-7-methoxyquinazolin-6-yl)piperidin-1-yl)prop-2-en-1-one]
≤ 200 | 200 to 1000 | 200 to 1000 | > 1000 | ≤ 200 | ≤ 200 | C=CC(=O)N1CCC=C(c2cc3c(Nc4ccc(Cl)c(Cl)c4F)ncnc3cc2OC)C1 [Compound 186, 1-(5-(4-((3,4-dichloro-2-fluorophenyl)amino)-7-methoxyquinazolin-6-yl)-3,6-dihydropyridin-1(2H)-yl)prop-2-en-1-one]
≤ 200 | 200 to 1000 | 200 to 1000 | 200 to 1000 | ≤ 200 | 200 to 1000 | C=CC(=O)N1CCC=C(c2ccc3ncnc(Nc4ccc(Cl)c(Cl)c4F)c3c2)C1 [Compound 187, 1-(5-(4-((3,4-dichloro-2-fluorophenyl)amino)quinazolin-6-yl)-3,6-dihydropyridin-1(2H)-yl)prop-2-en-1-one]
≤ 200 | 200 to 1000 | 200 to 1000 | ≤ 200 | ≤ 200 | ≤ 200 | C=CS(=O)(=O)N1CCCC(c2ccc3ncnc(Nc4ccc(Cl)c(Cl)c4F)c3c2)C1 (stereo not drawn) [Compound 188, N-(3,4-dichloro-2-fluorophenyl)-6-(1-(vinylsulfonyl)piperidin-3-yl)quinazolin-4-amine]
≤ 200 | ≤ 200 | 200 to 1000 | ≤ 200 | ≤ 200 | ≤ 200 | C=CS(=O)(=O)N1CCC=C(c2ccc3ncnc(Nc4ccc(Cl)c(Cl)c4F)c3c2)C1 [Compound 190, N-(3,4-dichloro-2-fluorophenyl)-6-(1-(vinylsulfonyl)-1,2,5,6-tetrahydropyridin-3-yl)quinazolin-4-amine]

The next lines start with the molecule.

Compound | EC50 (Ba/F3 stable cells [1]) [nM] | EC50 (Ba/F3 stable cells [2]) [nM] | EC50 (Ba/F3 stable cells [3]) [nM] | EC50 (Ba/F3 stable cells [4]) [nM] | EC50 (Ba/F3 stable cells [5]) [nM] | EC50 (Ba/F3 stable cells [6]) [nM]
C=CC(=O)N1CCC(Oc2cc3c(C(=O)c4ccc(OC)cc4)ncnc3cc2OC)CC1 [Compound 174, 1-(4-((7-methoxy-4-(4-methoxybenzoyl)quinazolin-6-yl)oxy)piperidin-1-yl)prop-2-en-1-one] | > 1000 | > 1000 | > 1000 | > 1000 | > 1000 | > 1000
C=CC(=O)N1CCC(Oc2cc3c(C(=O)c4ccc(Cl)c(Cl)c4F)ncnc3cc2OC)CC1 [Compound 175, 1-(4-((4-(3,4-dichloro-2-fluorobenzoyl)-7-methoxyquinazolin-6-yl)oxy)piperidin-1-yl)prop-2-en-1-one] | ≤ 200 | 200 to 1000 | 200 to 1000 | 200 to 1000 | ≤ 200 | ≤ 200
C=CC(=O)N1C2CCCC1CC(Oc1cc3c(Nc4ccc(Cl)c(Cl)c4F)ncnc3cc1OC)C2 (stereo not drawn) [Compound 176, 1-(3-((4-((3,4-dichloro-2-fluorophenyl)amino)-7-methoxyquinazolin-6-yl)oxy)-9-azabicyclo[3.3.1]nonan-9-yl)prop-2-en-1-one] | ≤ 200 | ≤ 200 | ≤ 200 | ≤ 200 | ≤ 200 | ≤ 200
C=CC(=O)N1C2CCC1CC(Oc1cc3c(Nc4ccc(Cl)c(Cl)c4F)ncnc3cc1OC)C2 (stereo not drawn) [Compound 177, 1-(3-((4-((3,4-dichloro-2-fluorophenyl)amino)-7-methoxyquinazolin-6-yl)oxy)-8-azabicyclo[3.2.1]octan-8-yl)prop-2-en-1-one] | ≤ 200 | ≤ 200 | ≤ 200 | ≤ 200 | ≤ 200 | ≤ 200
C=CC(=O)N1C2CCCC1CC(Oc1cc3c(Nc4cccc5ccccc45)ncnc3cc1OC)C2 (stereo not drawn) [Compound 178, 1-(3-((7-methoxy-4-(naphthalen-1-ylamino)quinazolin-6-yl)oxy)-9-azabicyclo[3.3.1]nonan-9-yl)prop-2-en-1-one] | ≤ 200 | 200 to 1000 | ≤ 200 | ≤ 200 | ≤ 200 | ≤ 200
C=CC(=O)N1C2CCCC1CC(Oc1cc3c(Nc4ccc5ccccc5c4)ncnc3cc1OC)C2 (stereo not drawn) [Compound 179, 1-(3-((7-methoxy-4-(naphthalen-2-ylamino)quinazolin-6-yl)oxy)-9-azabicyclo[3.3.1]nonan-9-yl)prop-2-en-1-one] | ≤ 200 | 200 to 1000 | ≤ 200 | ≤ 200 | ≤ 200 | ≤ 200
C=CC(=O)N1C2CCC1CC(Oc1cc3c(Nc4ccc5ccccc5c4)ncnc3cc1OC)C2 (stereo not drawn) [Compound 180, 1-(3-((7-methoxy-4-(naphthalen-2-ylamino)quinazolin-6-yl)oxy)-8-azabicyclo[3.2.1]octan-8-yl)prop-2-en-1-one] | ≤ 200 | ≤ 200 | ≤ 200 | ≤ 200 | ≤ 200 | ≤ 200
C=CC(=O)N1C2CCC1CC(Oc1cc3c(Nc4cccc5ccccc45)ncnc3cc1OC)C2 (stereo not drawn) [Compound 181, 1-(3-((7-methoxy-4-(naphthalen-1-ylamino)quinazolin-6-yl)oxy)-8-azabicyclo[3.2.1]octan-8-yl)prop-2-en-1-one] | ≤ 200 | ≤ 200 | ≤ 200 | ≤ 200 | ≤ 200 | ≤ 200
C=CC(=O)N1C2CCCC1CC(Oc1cc3c(Nc4cccc5c4CCC5)ncnc3cc1OC)C2 (stereo not drawn) [Compound 182, 1-(3-((4-((2,3-dihydro-1H-inden-4-yl)amino)-7-methoxyquinazolin-6-yl)oxy)-9-azabicyclo[3.3.1]nonan-9-yl)prop-2-en-1-one] | 200 to 1000 | > 1000 | > 1000 | 200 to 1000 | ≤ 200 | 200 to 1000
C=CC(=O)N1C2CCC1CC(Oc1cc3c(Nc4cccc5c4CCC5)ncnc3cc1OC)C2 (stereo not drawn) [Compound 183, 1-(3-((4-((2,3-dihydro-1H-inden-4-yl)amino)-7-methoxyquinazolin-6-yl)oxy)-8-azabicyclo[3.2.1]octan-8-yl)prop-2-en-1-one] | ≤ 200 | 200 to 1000 | 200 to 1000 | ≤ 200 | ≤ 200 | ≤ 200
C=CS(=O)(=O)NC1CC(Oc2cc3c(Nc4ccc(Cl)c(Cl)c4F)ncnc3cc2OC)C1 (stereo not drawn) [Compound 191, N-(3-((4-((3,4-dichloro-2-fluorophenyl)amino)-7-methoxyquinazolin-6-yl)oxy)cyclobutyl)ethenesulfonamide] | ≤ 200 | ≤ 200 | > 1000 | ≤ 200 | ≤ 200 | ≤ 200
